Test results: ChEMBL document CHEMBL3885861, “Open TG-GATES”

Species: Rattus norvegicus
Test: Open TG-GATES - Regimen: Daily Repeat
Type: toxicity, organism-based, Sprague-Dawley
Design: regimen Daily Repeat, gender Male, age 6 weeks
Details: in vivo, po, 100 mg/kg, route gavage, dose level Low; for APTT / Bas / Eos / Fbg / Hb / Ht / Lym / MCH / MCHC / MCV / Mono / Neu / PT / Plat / RBC / Ret / WBC: tissue Blood; for KIDNEY_L / KIDNEY_R / KIDNEY_TOTAL: tissue Kidney; for LIVER: tissue Liver; for A/G / ALP / ALT / AST / BUN / CRE / Ca / Cl / DBIL / GLC / IP / K / LDH / Na / PL / RALB / TBIL / TC / TG / TP / gamma-GTP: tissue Plasma

O=C(OC[C@H]1O[C@@H](OC(=O)c2cc(O)c(O)c(OC(=O)c3cc(O)c(O)c(O)c3)c2)[C@H](OC(=O)c2cc(O)c(O)c(OC(=O)c3cc(O)c(O)c(O)c3)c2)[C@@H](OC(=O)c2cc(O)c(O)c(OC(=O)c3cc(O)c(O)c(O)c3)c2)[C@@H]1OC(=O)c1cc(O)c(O)c(OC(=O)c2cc(O)c(O)c(O)c2)c1)c1cc(O)c(O)c(OC(=O)c2cc(O)c(O)c(O)c2)c1 [TANNIC ACID] showed a TERMINAL_BW (72 h, time 3 day) of 221.9 g, an APTT (72 h, time 3 day) of 16.9 s and a Bas (72 h, time 3 day) of 0%. It also gave an Eos (72 h, time 3 day) of 1%, a Fbg (72 h, time 3 day) of 234.4 mg/dL and a Hb (72 h, time 3 day) of 13.2 g/dL. For the same compound, the Ht (72 h, time 3 day) was 39.2%, the Lym (72 h, time 3 day) was 72.6% and the MCH (72 h, time 3 day) was 22.3 pg. The MCHC (72 h, time 3 day) was 33.6%, the MCV (72 h, time 3 day) was 66.4 fL and the Mono (72 h, time 3 day) was 12.2%. The Neu (72 h, time 3 day) was 14.4%, the PT (72 h, time 3 day) was 11.5 s and the Plat (72 h, time 3 day) was 111.4 x10_4/uL. It also gave an RBC (72 h, time 3 day) of 590.2 x10_4/ul, a Ret (72 h, time 3 day) of 8.8% and a WBC (72 h, time 3 day) of 90.6 x10_2/uL. It also gave a KIDNEY_L (72 h, time 3 day) of 1 g, a KIDNEY_R (72 h, time 3 day) of 1 g and a KIDNEY_TOTAL (72 h, time 3 day) of 2 g. For the same compound, the LIVER (72 h, time 3 day) was 11.1 g, the A/G (72 h, time 3 day) was 2.3 and the ALP (72 h, time 3 day) was 864 IU/L. The ALT (72 h, time 3 day) was 33.4 IU/L, the AST (72 h, time 3 day) was 61.4 IU/L and the BUN (72 h, time 3 day) was 18.8 mg/dL. For the same compound, the CRE (72 h, time 3 day) was 0.5 mg/dL, the Ca (72 h, time 3 day) was 11 mg/dL and the Cl (72 h, time 3 day) was 104.2 meq/L. It also gave a DBIL (72 h, time 3 day) of 0 mg/dL, a GLC (72 h, time 3 day) of 204.8 mg/dL and an IP (72 h, time 3 day) of 8.6 mg/dL. It also gave a K (72 h, time 3 day) of 4.8 meq/L, an LDH (72 h, time 3 day) of 68.4 IU/L and a Na (72 h, time 3 day) of 139.8 meq/L. The PL (72 h, time 3 day) was 154.6 mg/dL, the RALB (72 h, time 3 day) was 4 g/dL and the TBIL (72 h, time 3 day) was 0.3 mg/dL. For the same compound, the TC (72 h, time 3 day) was 84.6 mg/dL, the TG (72 h, time 3 day) was 100.8 mg/dL and the TP (72 h, time 3 day) was 5.7 g/dL. The gamma-GTP (72 h, time 3 day) was 1.2 IU/L, the TERMINAL_BW ([…], time 7 day) was 249.2 g and the TERMINAL_BW ([…], time 14 day) was 296.1 g. For the same compound, the TERMINAL_BW ([…], time 28 day) was 380.6 g, the APTT ([…], time 7 day) was 16.3 s and the Bas ([…], time 7 day) was 0%. The Eos ([…], time 7 day) was 1%, the Fbg ([…], time 7 day) was 221.6 mg/dL and the Hb ([…], time 7 day) was 13.4 g/dL. For the same compound, the Ht ([…], time 7 day) was 40.3%, the Lym ([…], time 7 day) was 74.8% and the MCH ([…], time 7 day) was 21 pg. The MCHC ([…], time 7 day) was 33.3%, the MCV ([…], time 7 day) was 63.3 fL and the Mono ([…], time 7 day) was 7.4%. It also gave a Neu ([…], time 7 day) of 16.8%, a PT ([…], time 7 day) of 11 s and a Plat ([…], time 7 day) of 122.5 x10_4/uL. For the same compound, the RBC ([…], time 7 day) was 638.6 x10_4/ul, the Ret ([…], time 7 day) was 6.5% and the WBC ([…], time 7 day) was 119 x10_2/uL. The APTT ([…], time 14 day) was 16.7 s, the Bas ([…], time 14 day) was 0% and the Eos ([…], time 14 day) was 1%. For the same compound, the Fbg ([…], time 14 day) was 261 mg/dL, the Hb ([…], time 14 day) was 14.3 g/dL and the Ht ([…], time 14 day) was 42.9%. It also gave a Lym ([…], time 14 day) of 74.5%, an MCH ([…], time 14 day) of 20.9 pg and an MCHC ([…], time 14 day) of 33.4%. For the same compound, the MCV ([…], time 14 day) was 62.6 fL, the Mono ([…], time 14 day) was 6.8% and the Neu ([…], time 14 day) was 18%. For the same compound, the PT ([…], time 14 day) was 11.5 s, the Plat ([…], time 14 day) was 129.4 x10_4/uL and the RBC ([…], time 14 day) was 685.8 x10_4/ul. It also gave a Ret ([…], time 14 day) of 4.6%, a WBC ([…], time 14 day) of 136 x10_2/uL and an APTT ([…], time 28 day) of 15.9 s. It also gave a Bas ([…], time 28 day) of 0%, an Eos ([…], time 28 day) of 1.2% and a Fbg ([…], time 28 day) of 230 mg/dL. It also gave a Hb ([…], time 28 day) of 15.1 g/dL, a Ht ([…], time 28 day) of 45% and a Lym ([…], time 28 day) of 80.4%. It also gave an MCH ([…], time 28 day) of 19.9 pg, an MCHC ([…], time 28 day) of 33.5% and an MCV ([…], time 28 day) of 59.5 fL. For the same compound, the Mono ([…], time 28 day) was 5.8%, the Neu ([…], time 28 day) was 12.4% and the PT ([…], time 28 day) was 12 s. It also gave a Plat ([…], time 28 day) of 116.4 x10_4/uL, an RBC ([…], time 28 day) of 757.4 x10_4/ul and a Ret ([…], time 28 day) of 2.8%. For the same compound, the WBC ([…], time 28 day) was 142.1 x10_2/uL, the KIDNEY_L ([…], time 7 day) was 1 g and the KIDNEY_R ([…], time 7 day) was 1 g. The KIDNEY_TOTAL ([…], time 7 day) was 2.1 g, the KIDNEY_L ([…], time 14 day) was 1.1 g and the KIDNEY_R ([…], time 14 day) was 1.2 g. The KIDNEY_TOTAL ([…], time 14 day) was 2.3 g, the KIDNEY_L ([…], time 28 day) was 1.4 g and the KIDNEY_R ([…], time 28 day) was 1.5 g. The KIDNEY_TOTAL ([…], time 28 day) was 2.9 g, the LIVER ([…], time 7 day) was 12.2 g and the LIVER ([…], time 14 day) was 13.7 g. The LIVER ([…], time 28 day) was 15.5 g, the A/G ([…], time 7 day) was 1.5 and the ALP ([…], time 7 day) was 796.4 IU/L. The ALT ([…], time 7 day) was 32.2 IU/L, the AST ([…], time 7 day) was 62.6 IU/L and the BUN ([…], time 7 day) was 18.4 mg/dL. The CRE ([…], time 7 day) was 0.5 mg/dL, the Ca ([…], time 7 day) was 11.1 mg/dL and the Cl ([…], time 7 day) was 103.2 meq/L. It also gave a DBIL ([…], time 7 day) of 0.004 mg/dL, a GLC ([…], time 7 day) of 207.4 mg/dL and an IP ([…], time 7 day) of 8.3 mg/dL. It also gave a K ([…], time 7 day) of 4.3 meq/L, an LDH ([…], time 7 day) of 87.6 IU/L and a Na ([…], time 7 day) of 138 meq/L. The PL ([…], time 7 day) was 160.8 mg/dL, the RALB ([…], time 7 day) was 3.6 g/dL and the TBIL ([…], time 7 day) was 0.4 mg/dL. The TC ([…], time 7 day) was 84.2 mg/dL, the TG ([…], time 7 day) was 116.2 mg/dL and the TP ([…], time 7 day) was 6 g/dL. For the same compound, the gamma-GTP ([…], time 7 day) was 1.6 IU/L, the A/G ([…], time 14 day) was 1.8 and the ALP ([…], time 14 day) was 726.5 IU/L. It also gave an ALT ([…], time 14 day) of 32 IU/L, an AST ([…], time 14 day) of 58.2 IU/L and a BUN ([…], time 14 day) of 18.5 mg/dL. It also gave a CRE ([…], time 14 day) of 0.6 mg/dL, a Ca ([…], time 14 day) of 10.9 mg/dL and a Cl ([…], time 14 day) of 102.8 meq/L. For the same compound, the DBIL ([…], time 14 day) was 0.01 mg/dL, the GLC ([…], time 14 day) was 207.5 mg/dL and the IP ([…], time 14 day) was 8.3 mg/dL. For the same compound, the K ([…], time 14 day) was 4.2 meq/L, the LDH ([…], time 14 day) was 77 IU/L and the Na ([…], time 14 day) was 140 meq/L. It also gave a PL ([…], time 14 day) of 140.2 mg/dL, an RALB ([…], time 14 day) of 3.9 g/dL and a TBIL ([…], time 14 day) of 0.3 mg/dL. The TC ([…], time 14 day) was 69.5 mg/dL, the TG ([…], time 14 day) was 100.2 mg/dL and the TP ([…], time 14 day) was 6.1 g/dL. It also gave a gamma-GTP ([…], time 14 day) of 1.8 IU/L, an A/G ([…], time 28 day) of 1.6 and an ALP ([…], time 28 day) of 659.6 IU/L. It also gave an ALT ([…], time 28 day) of 34 IU/L, an AST ([…], time 28 day) of 64.6 IU/L and a BUN ([…], time 28 day) of 20.2 mg/dL. The CRE ([…], time 28 day) was 0.6 mg/dL, the Ca ([…], time 28 day) was 10.8 mg/dL and the Cl ([…], time 28 day) was 106.4 meq/L. For the same compound, the DBIL ([…], time 28 day) was 0.006 mg/dL, the GLC ([…], time 28 day) was 196.8 mg/dL and the IP ([…], time 28 day) was 7.4 mg/dL. For the same compound, the K ([…], time 28 day) was 4.3 meq/L, the LDH ([…], time 28 day) was 78.2 IU/L and the Na ([…], time 28 day) was 139.4 meq/L. The PL ([…], time 28 day) was 145.8 mg/dL, the RALB ([…], time 28 day) was 3.8 g/dL and the TBIL ([…], time 28 day) was 0.3 mg/dL. It also gave a TC ([…], time 28 day) of 70.6 mg/dL, a TG ([…], time 28 day) of 108 mg/dL and a TP ([…], time 28 day) of 6.2 g/dL. The gamma-GTP ([…], time 28 day) was 2 IU/L.
